Values of other authors in patent US20050214353A1, “Transdermal therapeutic system” (priority 2001, published 2005).

SMILES: CCN(CC)C(=O)N[C@H]1C=C2c3cccc4[nH]cc(c34)C[C@H]2N(C)C1 [lisuride, 3-(9,10-didehydro-6-methyl-8α-ergolinyl)-1,1-diethyl urea]
- half-life in the blood: ca. 2 hrs
